# From patent US20250282768A1 (Janssen Pharmaceutica NV, priority 2022, published 2025)
# Tested on: p-IKKa levels in L363 (NIK translocated multiple myeloma) cells
# Test: Assay 2: Effect of compounds on p-IKKa levels in L363 (NIK translocated multiple myeloma) cells
# Assay type: cell-based
# Settings: Homo sapiens, L-363, 6 h, read-out: Assay 2 IC50 (nM), p-IKKa (Ser 176/180) in BAFF stimulated L363 cells with MG132, 6 h; average if tested more than once
# Procedure, shortened: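 Read-out is p-IKKa Ser176/180 by AlphaLISA SureFire in lysates. Cells were BAFF-primed (250 ng/ml) overnight or left unstimulated, then exposed 6 h at 37 °C to compound with MG132 (10 μM), 0.3% DMSO. IC50 from sigmoidal curve fit, normalized between stimulated and unstimulated controls.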
row,Structure (SMILES),IC50 [nM]
1,"Cc1ccn2cnnc2c1Nc1nccc(-c2cccc(-c3cc([C@]4(O)CCN(C)C4=O)on3)n2)n1 [Example 273, (R)-3-Hydroxy-1-methyl-3-(3-(6-(2-((7-methyl-[1,2,4]triazolo[4,3-a]pyridin-8-yl)amino)pyrimidin-4-yl)pyridin-2-yl)isoxazol-5-yl)pyrrolidin-2-one]",> 500
2,"CN(C)Cc1ccc(Nc2nccc(-c3cccc(-c4cc([C@]5(O)CCN(C)C5=O)on4)n3)n2)nc1 [Example 274, (R)-3-(3-(6-(2-((5-((Dimethylamino)methyl)pyridin-2-yl)amino)pyrimidin-4-yl)pyridin-2-yl)isoxazol-5-yl)-3-hydroxy-1-methylpyrrolidin-2-one]",50 to 500
3,"CCn1ncnc1Nc1nccc(-c2cccc(-c3cc([C@]4(O)CCN(C)C4=O)on3)n2)n1 [Example 276, (R)-3-(3-(6-(2-((1-Ethyl-1H-1,2,4-triazol-5-yl)amino)pyrimidin-4-yl)pyridin-2-yl)isoxazol-5-yl)-3-hydroxy-1-methylpyrrolidin-2-one]",> 500
4,"CN(C)C(=O)Cn1ccc(Nc2nccc(-c3cccc(-c4cc([C@]5(O)CCN(C)C5=O)on4)n3)n2)n1 [Example 277, (R)-2-(3-((4-(6-(5-(3-Hydroxy-1-methyl-2-oxopyrrolidin-3-yl)isoxazol-3-yl)pyridin-2-yl)pyrimidin-2-yl)amino)-1H-pyrazol-1-yl)-N,N-dimethylacetamide]",50 to 500
5,"Cc1nn(CCN(C)C)c(C)c1Nc1nccc(-c2cccc(-c3cc([C@]4(O)CCN(C)C4=O)on3)n2)n1 [Example 278, (R)-3-(3-(6-(2-((1-(2-(Dimethylamino)ethyl)-3,5-dimethyl-1H-pyrazol-4-yl)amino)pyrimidin-4-yl)pyridin-2-yl)isoxazol-5-yl)-3-hydroxy-1-methylpyrrolidin-2-one]",> 500
6,"CN1CC[C@@](O)(c2cc(-c3cccc(-c4ccnc(Nc5cc(Cl)n(C)n5)n4)n3)no2)C1=O [Example 279, (R)-3-(3-(6-(2-((5-Chloro-1-methyl-1H-pyrazol-3-yl)amino)pyrimidin-4-yl)pyridin-2-yl)isoxazol-5-yl)-3-hydroxy-1-methylpyrrolidin-2-one]",50 to 500
7,"CN1CC[C@@](O)(c2cc(-c3cccc(-c4ccnc(Nc5cc(CO)n(C)n5)n4)n3)no2)C1=O [Example 280, (R)-3-Hydroxy-3-(3-(6-(2-((5-(hydroxymethyl)-1-methyl-1H-pyrazol-3-yl)amino)pyrimidin-4-yl)pyridin-2-yl)isoxazol-5-yl)-1-methylpyrrolidin-2-one]",50 to 500
8,"CN1CC[C@@](O)(c2cc(-c3cccc(-c4ccnc(Nc5ccnnc5)n4)n3)no2)C1=O [Example 281, (R)-3-Hydroxy-1-methyl-3-(3-(6-(2-(pyridazin-4-ylamino)pyrimidin-4-yl)pyridin-2-yl)isoxazol-5-yl)pyrrolidin-2-one]",> 500
9,"Cc1cc(Nc2nccc(-c3cccc(-c4cc([C@]5(O)CCN(C)C5=O)on4)n3)n2)nn1C [Example 282, (R)-3-(3-(6-(2-((1,5-Dimethyl-1H-pyrazol-3-yl)amino)pyrimidin-4-yl)pyridin-2-yl)isoxazol-5-yl)-3-hydroxy-1-methylpyrrolidin-2-one]",< 50
10,"Cc1cc(Nc2nccc(-c3cccc(-c4cc([C@]5(O)CCN(C)C5=O)on4)n3)n2)cc(C)n1 [Example 283, (R)-3-(3-(6-(2-((2,6-Dimethylpyridin-4-yl)amino)pyrimidin-4-yl)pyridin-2-yl)isoxazol-5-yl)-3-hydroxy-1-methylpyrrolidin-2-one]",< 50
11,"COc1ccc(Nc2nccc(-c3cccc(-c4cc([C@]5(O)CCN(C)C5=O)on4)n3)n2)cn1 [Example 285, (R)-3-Hydroxy-3-(3-(6-(2-((6-methoxypyridin-3-yl)amino)pyrimidin-4-yl)pyridin-2-yl)isoxazol-5-yl)-1-methylpyrrolidin-2-one]",< 50
12,"C[C@@H]1C[C@@](O)(c2cc(-c3cccc(-c4ccnc(Nc5cnn(C)c5)n4)n3)no2)C(=O)N1C [Example 286, (3R,5R)-3-Hydroxy-1,5-dimethyl-3-(3-(6-(2-((1-methyl-1H-pyrazol-4-yl)amino)pyrimidin-4-yl)pyridin-2-yl)isoxazol-5-yl)pyrrolidin-2-one]",> 500
13,"CN1C(=O)[C@](O)(c2cc(-c3cccc(-c4ccnc(Nc5cnn(C)c5Cl)n4)n3)no2)[C@H]2C[C@H]21 [Example 287, (1R,4R,5S)-4-(3-(6-(2-((5-Chloro-1-methyl-1H-pyrazol-4-yl)amino)pyrimidin-4-yl)pyridin-2-yl)isoxazol-5-yl)-4-hydroxy-2-methyl-2-azabicyclo[3.1.0]hexan-3-one]",50 to 500
14,"COc1cncc(Nc2nccc(-c3cccc(-c4cc([C@]5(O)CCN(C)C5=O)on4)n3)n2)c1 [Example 288, (R)-3-Hydroxy-3-(3-(6-(2-((5-methoxypyridin-3-yl)amino)pyrimidin-4-yl)pyridin-2-yl)isoxazol-5-yl)-1-methylpyrrolidin-2-one]",< 50
15,"Cc1nn(C)c(C)c1Nc1nccc(-c2cccc(-c3cc([C@]4(O)CCN(C)C4=O)on3)n2)n1 [Example 289, (R)-3-Hydroxy-1-methyl-3-(3-(6-(2-((1,3,5-trimethyl-1H-pyrazol-4-yl)amino)pyrimidin-4-yl)pyridin-2-yl)isoxazol-5-yl)pyrrolidin-2-one]",> 500
16,"CN1CC[C@@](O)(c2cc(-c3cccc(-c4ccnc(Nc5ccncc5C#N)n4)n3)no2)C1=O [Example 290, (R)-4-((4-(6-(5-(3-Hydroxy-1-methyl-2-oxopyrrolidin-3-yl)isoxazol-3-yl)pyridin-2-yl)pyrimidin-2-yl)amino)nicotinonitrile]",50 to 500
17,"Cc1ncc(Nc2nccc(-c3cccc(-c4cc([C@]5(O)CCN(C)C5=O)on4)n3)n2)cn1 [Example 291, (R)-3-Hydroxy-1-methyl-3-(3-(6-(2-((2-methylpyrimidin-5-yl)amino)pyrimidin-4-yl)pyridin-2-yl)isoxazol-5-yl)pyrrolidin-2-one]",50 to 500
18,"CN1CC[C@@](O)(c2cc(-c3cccc(-c4ccnc(Nc5cncc(C#N)c5)n4)n3)no2)C1=O [Example 292, (R)-5-((4-(6-(5-(3-Hydroxy-1-methyl-2-oxopyrrolidin-3-yl)isoxazol-3-yl)pyridin-2-yl)pyrimidin-2-yl)amino)nicotinonitrile]",< 50
19,"Cc1cc(Nc2nccc(-c3cccc(-c4cc([C@]5(O)CCN(C)C5=O)on4)n3)n2)c(F)cn1 [Example 293, (R)-3-(3-(6-(2-((5-Fluoro-2-methylpyridin-4-yl)amino)pyrimidin-4-yl)pyridin-2-yl)isoxazol-5-yl)-3-hydroxy-1-methylpyrrolidin-2-one]",< 50
20,"CN1CC[C@@](O)(c2cc(-c3cccc(-c4ccnc(Nc5ccnc(C(F)F)c5)n4)n3)no2)C1=O [Example 294, (R)-3-(3-(6-(2-((2-(Difluoromethyl)pyridin-4-yl)amino)pyrimidin-4-yl)pyridin-2-yl)isoxazol-5-yl)-3-hydroxy-1-methylpyrrolidin-2-one]",< 50
21,"CN1CC[C@@](O)(c2cc(-c3cccc(-c4ccnc(Nc5cc(F)n(C)n5)n4)n3)no2)C1=O [Example 295, (R)-3-(3-(6-(2-((5-Fluoro-1-methyl-1H-pyrazol-3-yl)amino)pyrimidin-4-yl)pyridin-2-yl)isoxazol-5-yl)-3-hydroxy-1-methylpyrrolidin-2-one]",< 50
22,"CN1CC[C@@](O)(c2cc(-c3cccc(-c4ccnc(Nc5cn(C)nc5Cl)n4)n3)no2)C1=O [Example 296, (R)-3-(3-(6-(2-((3-Chloro-1-methyl-1H-pyrazol-4-yl)amino)pyrimidin-4-yl)pyridin-2-yl)isoxazol-5-yl)-3-hydroxy-1-methylpyrrolidin-2-one]",< 50
23,"CN1CC[C@@](O)(c2cc(-c3cccc(-c4ccnc(Nc5cnn(C)c5Cl)n4)n3)no2)C1=O [Example 297, (R)-3-(3-(6-(2-((5-Chloro-1-methyl-1H-pyrazol-4-yl)amino)pyrimidin-4-yl)pyridin-2-yl)isoxazol-5-yl)-3-hydroxy-1-methylpyrrolidin-2-one]",< 50
24,"Cc1nccc(Nc2nccc(-c3cccc(-c4cc([C@]5(O)CCN(C)C5=O)on4)n3)n2)n1 [Example 298, (R)-3-Hydroxy-1-methyl-3-(3-(6-(2-((2-methylpyrimidin-4-yl)amino)pyrimidin-4-yl)pyridin-2-yl)isoxazol-5-yl)pyrrolidin-2-one]",< 50
25,"CN1CC[C@@](O)(c2cc(-c3cccc(-c4ccnc(Nc5cnn6ccncc56)n4)n3)no2)C1=O [Example 299, (R)-3-Hydroxy-1-methyl-3-(3-(6-(2-(pyrazolo[1,5-a]pyrazin-3-ylamino)pyrimidin-4-yl)pyridin-2-yl)isoxazol-5-yl)pyrrolidin-2-one]",< 50
26,"CN1CC[C@@](O)(c2cc(-c3cccc(-c4ccnc(Nc5cc6n(n5)CC5(CC5)C6)n4)n3)no2)C1=O [Example 300, (R)-3-(3-(6-(2-((4′H,6′H-Spiro[cyclopropane-1,5′-pyrrolo[1,2-b]pyrazol]-2′-yl)amino)pyrimidin-4-yl)pyridin-2-yl)isoxazol-5-yl)-3-hydroxy-1-methylpyrrolidin-2-one]",< 50
27,"[2H]c1cc(-c2cccc(-n3cc([C@]4(O)CCN(C)C4=O)nn3)n2)nc(Nc2ccn(CC)n2)n1 [Example 301, (R)-3-(1-(6-(2-((1-Ethyl-1H-pyrazol-3-yl)amino)pyrimidin-4-yl-6-d)pyridin-2-yl)-1H-1,2,3-triazol-4-yl)-3-hydroxy-1-methylpyrrolidin-2-one]",< 50
28,"CN1CC[C@@](O)(c2cc(-c3cccc(-c4ccnc(Nc5cnn6c5COCC6)n4)n3)no2)C1=O [Example 302, (R)-3-(3-(6-(2-((6,7-Dihydro-4H-pyrazolo[5,1-c][1,4]oxazin-3-yl)amino)pyrimidin-4-yl)pyridin-2-yl)isoxazol-5-yl)-3-hydroxy-1-methylpyrrolidin-2-one]",< 50
